The test system of data set [1] is Kaninchen. Put plainly: Influence on infarct size in an ischaemia/reperfusion model (60 min coronary ligation, 30 min reperfusion). To be noted: i.v. 10 min before occlusion. It counts as in vivo. Here is the method:
1. Beeinflussung der Infarktgröße an einem Ischämie/Reperfusionsmodell
Kaninchen (Russen beiderlei Geschlechts, Körpergewicht 2-2,5 kg) werden mit einem Bolus (40-60 mg/kg i.p.) und nachfolgender Dauerinfusion (10 |g/kg/h) Pentobarbital narkotisiert. Die Körpertemperatur wird bei 38°C gehalten. Nach endotrachealer Intubation werden die Tiere druckkonstant mit einer Mischung aus 50 % O₂ und 50 % N₂ beatmet. Die Kontrolle der Blutgase und des Blut pH erfolgt mit einem Blutgasanalyzer (ABL-2, Radiometer). Zur Messung des linksventrikulären Druckes wurde ein Druckwandler über die A-carotis in die linke Herzkammer geschoben. Der Aortendruck wird über einen via A. femoralis eingeführten Katheter erfaßt. Nach Eröffnung des Thorax im 5. linken Interkostalraum wird die linke absteigende Koronararterie für 60 Minuten ligiert und danach die Koronararterie wieder eröffnet. Nach 30minütiger Reperfusion wird die Arterie an derselben Stelle wieder verschlossen und das normal perfundierte Myokard mit Patentblau (in den linken Vorhof injiziert) angefärbt. Das Herz wird danach in drei Scheiben geschnitten und das bisher ungefärbte, vorher ischämische Gewebe, wird in einem Puffer mit Triphenyltetrazolium angefärbt. Überlebende Herzmuskelreale färben sich ziegelrot, während totes Gewebe bleich erscheint. […]

The test system of data set [2] is Hunde. In words: Effect on collateral-dependent residual myocardial perfusion after repeated complete occlusion of the circumflex branch of the left coronary artery (radioactive microspheres). It counts as in vivo. To be noted: relative to third occlusion. Here is the method: 2. Wirkung auf die kollateralabhängige Restperfusion des Myokards nach wiederholter vollständiger Okklusion des umschlingenden Astes der linken Koronararterie
Hunde (mischrassig, beiderlei Geschlechts, 20-30 kg Körpergewicht) werden mit Morphin (1 mg/kg s.c.) prämediziert und mit Pentobarbital (i.v. 20 mg/kg Bolus gefolgt von einer Dauerinfusion von 8 mg/kg) narkotisiert. Die Körpertemperatur wird mit einem Heizkissen bei 38°C gehalten. Nach endotrachealer Intubation werden die Tiere mit einem Gemisch von 25 % O₂ und 75 % N₂O beatmet. Der linksventrikuläre Druck wird mit einem Mikrodruckwandler gemessen, während der Aortendruck über einen via A. femoralis vorgeschobenen Katheter erfaßt wird. Nach Thoraxeröffnung im linken 5. Interkostalraum wird der Ramus circumflexus der linken Koronararterie freipärpariert und der Meßkopf eines elektromagnetischen Flowmeters darumgelegt. Zur Injektion von radioaktiven Mikrosphären (regionale Perfusionsmessung) wird der linke Vorhof kanüliert. Die Referenzprobe wird über die linke A. femoralis 2 Minuten lang bei einem Fluß von 6 ml/Minute gezogen. Die Registrierung der hämodynamischen Daten erfolgt auf einem IFD Polygraphen.
Nach einer 30minütigen Äquilibrierungsphase wird der Ramus circumflexus 6 mal im Abstand von jeweils 30 Minuten für 4 Minuten verschlossen. Dabei wird während der 4. Minute eine regionale Perfusionsbestimmung durchgeführt. Die Perfusion des Versorgungsbereiches des Ramus circumflexus ist abhängig von koronaren Kollateralgefäßen. Für die Beurteilung der Kollateralperfusion werden die besonders ischämiegefährdeten subendocardialen Herzmuskelschichten herangezogen. Als Bezugswert vor Substanzgabe dient der jeweilige Flußwert der dritten Okklusion.

Data set [3] is described as follows: Acute toxicity (LD50), mouse. To be noted: in vivo, Maus.
A short description of data set [4]: Acute toxicity (LD50), rat. To be noted: in vivo, iv, Ratte, read-out: LD₅₀ i.v.
Where [5] appears, read: po, read-out: LD₅₀ p.o. (converted).

Each structure is given as a SMILES string.

The source of these data is EP0330052B1, “Use of benzimidazoles for preparing a medicine with an anti-ischemial activity on the heart, and combinations with betablockers or bradycardics” (Dr. Karl Thomae GmbH, priority 1988, dated 1989).

For `CC(C)NCC(O)COc1ccc(CC(N)=O)cc1` (stereo not shown) [Atenolol, reference compound], in data set [1] (Dosis 0,3 mg/kg), the “% des ischämischen Myokards infarziert” value is 63%.
For the compound `Cc1nc2ccc(C3=NNC(=O)CC3C)cc2[nH]1` (stereo not shown) [C, 2-Methyl-5-(5-methyl-3-oxo-4,5-dihydro-2H-6-pyridazinyl)-benzimidazol], the “% Änderung des Kollateralflusses pro Herzschlag im subendocardialen ischämischen Myocard” value is recorded as “+101%” in data set [2] (Dosis i.v. 10 µg/kg) and “+178%” in data set [2] (Dosis i.v. 30 µg/kg).
Regarding `COc1ccc(CCN2CCCC(CN3CCc4cc(OC)c(OC)cc4CC3=O)C2)cc1OC` (stereo not shown) [D, 3-[(N-(2-(3,4-Dimethoxyphenyl)-ethyl)-piperidin-3-yl)-methyl]-7,8-dimethoxy-1,3,4,5-tetrahydro-2H-3-benzazepin-2-on], the LD50 was 50 mg/kg in data set [3] (iv, read-out: LD₅₀ i.v.) and 720 mg/kg in data set [3] (setting [5]).
Turning to `COc1ccc(-c2nc3ccc(C4=NNC(=O)CC4C)cc3[nH]2)cc1` (stereo not shown) [Verbindung A, 2-(4-Methoxyphenyl)-5-(5-methyl-3-oxo-4,5-dihydro-2H-6-pyridazinyl)-benzimidazol], in data set [1] (Dosis 0,5 mg/kg), the “% des ischämischen Myokards infarziert” value is 34%. Also, the “% Änderung des Kollateralflusses pro Herzschlag im subendocardialen ischämischen Myocard” value in data set [2] (Dosis i.v. 30 µg/kg) is listed as “+100%”. In addition, the LD50 was 600 mg/kg in data set [3] (setting [5]) and 72 mg/kg in data set [4].
Consider `CC1CC(=O)NN=C1c1ccc2nc(-c3ccc(O)cc3)[nH]c2c1` (stereo not shown) [Verbindung B, 2-(4-Hydroxyphenyl)-5-(5-methyl-3-oxo-4,5-dihydro-2H-6-pyridazinyl)-benzimidazol], for which the “% Änderung des Kollateralflusses pro Herzschlag im subendocardialen ischämischen Myocard” value in data set [2] (Dosis i.v. 95 µg/kg) is “+182%”. In addition, the LD50 in data set [4] is over 100 mg/kg.
For the compound `COc1ccc(CCN(C)CCCN2CCc3cc(OC)c(OC)cc3CC2=O)cc1OC` [Verbindung E, 1-(7,8-Dimethoxy-1,3,4,5-tetrahydro-2H-3-benzazepin-2-on-3-yl)-3-[N-methyl-N-(2-(3,4-dimethoxyphenyl)-ethyl)-amino]propan], the LD50 in data set [3] (iv, read-out: LD₅₀ i.v.) is 89 mg/kg; in data set [3] (setting [5]), 1350 mg/kg.
